The source of these data is US6783966B1 (priority 2000, dated 2004).

The target of this assay is T1, α1,4 Gal-T (Homo sapiens, UniProt Q9NPC4).
T1 sequence (Q9NPC4 1-353): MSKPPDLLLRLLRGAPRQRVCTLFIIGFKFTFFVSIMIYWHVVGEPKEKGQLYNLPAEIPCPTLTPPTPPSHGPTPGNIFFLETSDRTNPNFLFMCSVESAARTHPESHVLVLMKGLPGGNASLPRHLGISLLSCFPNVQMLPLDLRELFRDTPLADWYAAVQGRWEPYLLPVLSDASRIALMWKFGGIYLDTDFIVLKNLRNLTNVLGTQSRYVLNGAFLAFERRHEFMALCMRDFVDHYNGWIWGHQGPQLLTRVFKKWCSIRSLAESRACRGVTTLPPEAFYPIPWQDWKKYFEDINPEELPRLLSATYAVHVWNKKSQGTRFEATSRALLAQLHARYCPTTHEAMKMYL
Put plainly: Enzyme assay of α1,4 Gal-T in membrane fraction of transfected L cells. Conditions: for Km: acceptor substrate of α1,4 Gal-T, donor UDP-Gal; for significant levels of [14C] galactose incorporation (acceptor): potential acceptors, FIG. 4B.

Description: The enzyme activity of α1,4 Gal-T in the membrane fraction was measured as descibed previously(ref.4). The reaction mixture for the assay contained the following in a volume of 50 μl:50 mM sodium cacodylate-HCl (pH 6.0), 10 mM MgCl2, 5 mM galactonolactone (Sigma), 0.3% Triton X-100 (Sigma), 0.4 mM (LacCer), 2.9 mM phosphatidylglycerol (Sigma), 0.2 mM UDP-Gal (Sigma), UDP-[^14C] Gal (2.5×10^5 dpm) (NEN), and membrane fraction containing 50 μg protein. The protein concentration was determined by Lowry's methods(ref.20). The products was isolated by a C18 Sep-Pak cartridge (Waters, Milford, Mass.) and analyzed by thin layer chromatography (TLC) and autoradiography using a Bio-Imaging Analyzer BAS2000 (Fuji Film, Tokyo).
Enzyme activity toward other potential acceptors was also examined (FIG. 4B).

Broadly, the Km is the substrate concentration at which the rate is half of its maximum. For the substance galactosylceramide, the Km amounted to 132 µM and the “significant levels of [14C] galactose incorporation (acceptor)” value was “significant levels”.

In the case of lactosylceramide [LacCer], the Km amounted to 54.5 µM and the “significant levels of [14C] galactose incorporation (acceptor)” value is “significant levels”.
